# Measurements reported in patent publication US20110166206A1, “UBIQUILIN REGULATION OF PRESENILIN ENDOPROTEOLYSIS, AND SUPPRESSION OF POLYGLUTAMINE-INDUCED TOXICITY IN CELLS” (UNIVERSITY OF MARYLAND BIOTECHNOLOGY INSTITUTE, priority 2005, published 2011).
# Square brackets hold non-standard residues; d marks the D form. Peptide text beside a SMILES is read from it. * marks the point of attachment. Nle = CCCC[C@H](N)C(=O)O; Cbz = O=C(OCc1ccccc1)*
# Experiments:
# PS1 NTF = test: Proteasome inhibitor treatment of PS1 inducible cells, PS1 NTF immunoblot; type: cell-based; conditions: 16 h treatment
# Protocol: (§1) (A) PS1 and PS2 inducible cells were treated with various classes of proteasome inhibitors for 16 hours. Afterwards, cell lysates were collected, separated by SDS-PAGE, and analyzed by immunoblotting. PS1 NTF levels and PS2 NTF levels were reduced by treatment with all of the different inhibitors albeit to varying extents.
# (§2) PS2 inducible cells were treated for 16 h with 10 uM clasto-lactacystin β-lactone, N-Acetyl-Leu-Leu-Nle-CHO (ALLN), 50 uM epoxomicin, 40 uM MG132, and […]. Afterwards, lysates were collected and the fragment levels were analyzed by SDS-PAGE and immunoblotting.
# (§3) First, to rule out that MG132 inhibits another factor involved in PS cleavage, PS1 and PS2 inducible cells were treated with a series of different known proteasome inhibitors including clasto-lactacystin p-lactone, ALLN, epoxomicin, MG132, and MG262. […] While each inhibitor had varying effects on the extent of reduction, PS1 NTF levels were reduced by an average of 1.3-fold and PS2 NTF levels were reduced by an average of 1.4-fold. At first glance the fold reduction appears modest; however, considering that degradation of the PS fragments by the proteasome has also been blocked and that fragment levels are tightly regulated, the reduction in PS fragment levels appears significant. Furthermore, it was considered unlikely that all […] proteasome inhibitors used here caused nonspecific inhibition of an unknown factor involved in PS endoproteolysis. Instead, it was considered that the most straightforward interpretation of the results is that, in accord with the mode of action the drugs, they all inhibit the proteasome, which is involved in PS endoproteolysis.
# PS2 NTF [1] = test: Proteasome inhibitor treatment of PS2 inducible cells, PS2 NTF immunoblot; type: cell-based, human; conditions: 16 h treatment
# Protocol: as §1, §2, §3
# PS2 NTF [2] = test: Proteasome inhibitor wash-out time course with CHX in PS2 stable cells; type: cell-based, human
# Protocol: (B) PS2 inducible cells were treated continuously with MG132 or MG262 or the drugs were washed from half the cultures after 7 hours of incubation with the drugs. Immediately after washing, CHX was added to all of the cultures to inhibit protein synthesis. Lysates were collected at two hour time points thereafter and the PS fragment levels were analyzed by SDS-PAGE and subsequent immunoblotting. […] Please note that because PS2 expression was not been induced with PonA, the FL protein is not detectable. The filter was reprobed with anti-p27 antibody to monitor recovery of proteasome activity. p27 has a half-life of two hours; therefore once proteasome inhibition is relieved the level of p27 begins to decline (third panel, right), whereas under constant proteasome inhibition its levels remain steady (third panel, left), serving as an important control.
# (C) Densitometric analysis was used to quantify the extent of increase in PS2 NTF levels in conditions of constant proteasome inhibition and upon removal of proteasome inhibition. At time=0 the NTF levels in the washed sample is equal to that of MG132 treated sample; however, NTF levels quickly begin to […], whereas in the MG132 treated samples PS2 NTF levels stay steady.
# PS2 inducible cells were grown in two sets on […]. Both sets were treated with MG132 or MG262 (also called Z-Leu-Leu-Leu-B(OH)2, Boston Biocem). 7 h later, the drugs were washed off one set by rinsing twice with warm 1×PBS and replacing with fresh DMEM supplemented with 10% FBS, allowing the proteasomes to recover. Also at that point, cyclohexamide (final cont. […]) was added to all dishes. Lysates were collected at two hour time points and the fragment levels were analyzed by SDS-PAGE and subsequent immunoblotting.
# To directly address whether the proteasome is responsible for endoproteolysis of PS2, another time course experiment utilizing proteasome inhibitors was devised. […]
# PS1 and PS2 NTF and CTF = test: MG132 treatment of UBQLN-transfected PS1 and PS2 stable cell lines, fragment immunoblot; type: cell-based; conditions: proteasome inhibitor treatment
# Protocol: FIG. 3. […] (A) PS1 cells lines that were either not induced (lanes 1 and 3) or induced with PonA (lanes 2 and 4) and either left untransfected (lanes 1 and 2) or transfected with UBQLN1 expression plasmids (lanes 3 and 4) were treated for 7 h with MG132 after which protein lysates were collected and analyzed by immunoblotting. […] For clarification, if UBQLN did increase the turnover rate then by blocking degradation, turnover would be stopped and PS fragment levels would be similar, or increase, relative to that of untransfected cells. […] Densitometric analysis was used to quantify the extent of reduction. Each experiment was repeated more than three times and similar trends were observed.
# (B) Same experiment and results as described in (A) except that PS2 inducible cell lines were used to examine PS2 NTF and CTF levels. […] UBQLN exerts greater effects on PS2 probably because it interacts more strongly with PS2, see [43].
# HeLa and HEK293 cells were grown in DMEM supplemented with 10% FBS. PS1 and S2 inducible cell lines were generated by transfection of the pERV-expressing HEK293 cell line (Stratgene, IaIolla, Calif.) with FL human PS2 cDNA under the control of ponasteroneA (PonA)-inducible cassette in plasmid pEGSH (Stratagene). Stable integration of the pEGSH plasmid was achieved by selection for hygromycin resistance. […]
# endogenous PS1 NTF = test: UBQLN overexpression in wild-type HEK293 cells, endogenous PS1 NTF immunoblot; type: cell-based; conditions: normal HEK293 cells
# Protocol: (C) Endogenous PS fragment levels were analyzed in HEK293 cells that were transfected with increasing amounts of UBQLN1 or UBQLN2 expression plasmids. Equivalent amounts of protein lysates were separated by 10% SDS-PAGE and immunoblotted with anti-PS1 NTF antibody. The filter was then reprobed with anti-ubiquilin antibody to ensure overexpression of UBQLN and with an anti-actin antibody to ensure equal protein loading. Overexpression of UBQLN decreases PS1 NTF levels and the extent of reduction was quantified again by densitometric analysis. Graph is quantification of untransfected and […] UBQLN cDNA plasmid transfected lanes.
# Preparation of protein lysates, SDS-PAGE and immunoblotting of proteins were described previously. Primary antibodies used were rabbit anti-PS2 loop and rabbit anti-PS2 NH,-terminus, both raised to GST-PS2 fusion proteins; rabbit anti-ubiquilin [43] which reacts with UBQLN1 and UBQLN2 polypeptides; rat anti-PS1 NH2,-terminus (Chemicon International, Temecula, Calif.); rabbit anti-PS1 loop raised to GST-PS1 fusion proteins; goat anti-p27 and goat anti-actin (Santa Cruz Biotechnology, Santa Cruz, Calif.); mouse monoclonal anti-tubulin (Sigma-Aldrich, St. Louis, Mo.); rabbit anti-nicastrin (Abeam, Cambridge, Mass.), rabbit anti-Pen-2 (Zymed, San Francisco, Calif.); and rabbit anti-Aph-la (Covance, Berkeley, Calif.). […]
compound,measurement,setting,value
"CCCC[C@@H](C=O)NC(=O)[C@H](CC(C)C)NC(=O)[C@H](CC(C)C)NC(C)=O [ALLN, N-Acetyl-Leu-Leu-Nle-CHO] (Ac-Leu-Leu-[Nle]-aldehyde)",PS1 NTF levels,PS1 NTF,reduced
same,PS2 NTF levels,PS2 NTF [1],reduced
CC(C)C[C@@H](C=O)NC(=O)[C@H](CC(C)C)NC(=O)[C@H](CC(C)C)NC(=O)OCc1ccccc1 [MG132] (Cbz-Leu-Leu-Leu-aldehyde),PS1 NTF levels,PS1 NTF,reduced
same,PS2 NTF levels,PS2 NTF [1],reduced
same,rise in PS2 NTF levels after inhibitor washed out,"PS2 NTF [2]; 12 hours after wash-out, CHX added",1.8 fold
same,PS2 NTF levels under continuous inhibitor,PS2 NTF [2]; inhibitor present for the continuous duration,remained relatively constant
same,"PS fragment levels, MG132 treated vs MG132 untreated cells",PS1 and PS2 NTF and CTF,reduced PS fragment levels
"CC(C)C[C@H](NC(=O)[C@H](CC(C)C)NC(=O)[C@H](CC(C)C)NC(=O)OCc1ccccc1)B(O)O [MG262, Z-Leu-Leu-Leu-B(OH)2]",PS1 NTF levels,PS1 NTF,reduced
same,PS2 NTF levels,PS2 NTF [1],reduced
same,PS2 fragments after removal of inhibitor,PS2 NTF [2]; proteasomes recover activity,notable increase in PS2 fragments
"CC(C)[C@H](O)[C@@]12NC(=O)[C@H](C)[C@@H]1OC2=O [clasto-lactacystin p-lactone, clasto-lactacystin β-lactone]",PS1 NTF levels,PS1 NTF,reduced
same,PS2 NTF levels,PS2 NTF [1],reduced
CC[C@H](C)[C@H](NC(=O)[C@H]([C@@H](C)CC)N(C)C(C)=O)C(=O)N[C@H](C(=O)N[C@@H](CC(C)C)C(=O)[C@@]1(C)CO1)[C@@H](C)O [epoxomicin],PS1 NTF levels,PS1 NTF,reduced
same,PS2 NTF levels,PS2 NTF [1],reduced
"UBQLN2: ubiquilin-2, 72% identical to UBQLN1, overexpressed from an expression plasmid",reduction of endogenous PS1 NTF levels,endogenous PS1 NTF,approximately 1.7 fold
